According to patent US20240182470A1, “KRASG12C MUTANT PROTEIN INHIBITOR, PREARATION AND USE THEREOF” (YA THERAPEUTICS INC, priority 2021, published 2024):

System: H358 (KRAS G12C mutant) cells
Test: Tumor cell proliferation inhibition assay (Cell Titer-Glo, 72 h)
Format: cell-based
Conditions: inhibition of tumor cell proliferation, 72 hours with compound, 10% fetal bovine serum; read-out: NCI-H538 IC50(nm)
Description: The H358 (KRAS G^12C mutant) cells were digested, centrifuged and resuspended, and the cell density was measured with a Scepter automatic cell counter. The cells were diluted to a solution containing 44,000 cells per milliliter, and the density-adjusted cell solution was 90 microliters per well. into a 96-well culture plate. The 96-well plate was placed in a 37° C., 5% CO2 incubator. After the cells were cultured for 24 hours, different concentrations of the compounds to be tested were added. The cells were incubated with the compounds for 72 hours in the presence of 10% fetal bovine serum. Glo Luminescent Cell Viability Assay Kit (see manufacturer's instructions for details) was used to measure ATP content to assess cell growth inhibition. Briefly, 30 μl of Cell Titer-Glo reagent was added to each well, and the plate was shaken for 10 minutes to induce cell lysis. Fluoroskan
Ascent FL (Thermo) assay was used to record the fluorescent signal, and the maximum signal value was obtained from cells treated with dimethyl sulfoxide for 72 hours. The minimum signal value was obtained from the medium alone (the number of cells was zero), and the % inhibition rate=(the maximum signal value compound signal value)/(the maximum signal value—the minimum signal value×100%, and the data were processed using Graphpadprism 5 software. By sigmoid Dose-response curve fitting to calculate the IC50 value. “A” means IC50≤50 nM; “B” means 50<IC50≤500 nM; “C” means 500<IC50≤2000 nM; “D” means 2000 nM<IC50

Compound | IC50 [nM]
C=C(F)C(=O)N1CCN(c2nc(OC[C@@]34CCCN3CC(F)(F)C4)nc3nc(-c4cc(O)cc5cccc(F)c45)c(F)cc23)C[C@@H]1CC#N [Compound 84, 7-(3-Hydroxy-8-fluoronaphthyl)-6-fluoro-4-(((S)-4-(2-fluoroacryloyl)-3-carbonitrileethylpiperazine)-1-yl)-2-(((S)-2,2-difluorotetrahydro-1H-pyrinyl-7a(5H)-yl)methoxy)pyridine[2,3-d]lopyrimidine] | ≤ 50
C=CC(=O)N1CCN(c2nc(OC[C@@]34CCCN3C[C@H](F)C4)nc3nc(-c4cc(O)cc5cccc(F)c45)c(F)cc23)[C@H](C)C1 [Compound 36, 7-(3-Hydroxy-8-fluoronaphthyl)-6-fluoro-4-(((R)-4-acryloyl-2-methylpiperazine)-1-yl)-2-(((2R,7aS)-2-fluorotetrahydro-1H-pyrincyclo-7a(5H)-yl)methoxy)pyridine[2,3-d]lopyrimidine] | ≤ 50
7-(8-Methylnaphthyl)-6-fluoro-4-(((S)-4-(2-fluoro acryloyl)-3-carbonitrileethylpiperazine)-1-yl)-2-(((S)-2,2-difluorotetrahydro-1H-pyrincycl-7a(5H)-yl)methoxy)pyridine[2,3-d]lopyrimidine [Compound 85] | ≤ 50
C=C(F)C(=O)N1CCN(c2nc(OC[C@@]34CCCN3CC(F)(F)C4)nc3c(F)c(-c4cccc5cccc(C)c45)ccc23)C[C@@H]1CC#N [Compound 68, 7-(8-Methylnaphthyl)-8-fluoro-4-(((S)-4-(2-fluoroacryloyl)-3-carbonitrileethylpiperazine)-1-yl)-2-(((S)-2,2-difluorotetrahydro-1H-pyrinyl-7a(5H)-yl)methoxy)quinazoline] | ≤ 50
C=C(F)C(=O)N1CCN(c2nc(OC[C@@]34CCCN3C[C@H](F)C4)nc3c(F)c(-c4cccc5cccc(F)c45)c(Cl)cc23)C[C@@H]1CC#N [Compound 41, 6-Chloro-7-(8-fluoronaphthyl)-8-fluoro-4-(((S)-4-(2-fluoroacryloyl)-3-carbonitrileethylpiperazine)-1-yl)-2-(((2R,7aS)-2-fluorotetrahydro-1H-pyrincycline-7a(5H)-yl)methoxy)quinazoline] | ≤ 50
7-(8-Fluoronaphthyl)-6-fluoro-4-(8-(2-fluoroacryloyl)-3,8-diazabicyclo[3.2.1]octan-3-yl)-2-(((2R,7aS)-2-fluorotetrahydro-1H-pyrinyl-7a(5H)-yl)methoxy)pyridine[2,3-d]lopyrimidine [Compound 31] | ≤ 50
C=CC(=O)N1CCN(c2nc(OC[C@@]34CCCN3C[C@H](F)C4)nc3nc(-c4cccc5cccc(F)c45)c(F)cc23)C[C@H]1CC#N [Compound 25, 7-(8-Fluoronaphthyl)-6-fluoro-4-(((R)-4-acryloyl-3-carbonitrileethylpiperazine)-1-yl)-2-(((2R,7aS)-2-fluorotetrahydro-1H-pyrincycl-7a(5H)-yl)methoxy)pyridine[2,3-d]lopyrimidine] | ≤ 50
C=C(F)C(=O)N1CCN(c2cc(OC[C@@H]3CCCN3C)nc3nc(-c4cccc5cccc(F)c45)c(F)cc23)C[C@@H]1CC#N [Compound 6] | ≤ 50
C=C(F)C(=O)N1CCN(c2nc(OC[C@@]34CCCN3CC(F)(F)C4)nc3c(F)c(-c4cccc5cccc(F)c45)c(Cl)cc23)C[C@@H]1CC#N [Compound 78, 6-Chloro-7-(8-fluoronaphthyl)-8-fluoro-4-(((S)-4-(2-fluoroacryloyl)-3-carbonitrileethylpiperazine)-1-yl)-2-(((S)-2,2-difluorotetrahydro-1H-pyrincycline-7a(5H)-yl)methoxy)quinazoline] | ≤ 50
C=C(F)C(=O)N1CCN(c2nc(OCC34CCCN3CCC4)nc3c(F)c(-c4cccc5cccc(F)c45)ccc23)C[C@@H]1CC#N [Compound 58, 7-(8-fluoronaphthyl)-8-fluoro-4-(((S)-4-(2-fluoroacryloyl)-3-carbonitrileethylpiperazine)-1-yl)-2-((tetrakis Preparation of Hydro-1H-Pyrin-7a(5H)-yl)methoxy)quinazoline] | ≤ 50
7-(8-Methylnaphthalene)-4-(((R)-4-Acryloyl-3-carbonitrileethylpiperazine)-1-yl)-2-(((1-(pyrrolidin-1-yl))methylcyclopropan-1-yl)methoxy)pyridine[2,3-d]lopyrimidine [Compound 18] | ≤ 50
7-(3-Hydroxy-8-fluoronaphthyl)-8-fluoro-4-(((R)-4-acryloyl-2-methylpiperazine)-1-yl)-2-(((S)-2,2-difluorotetrahydro-1H-pyrincycline-7a(5H)-yl)methoxy)quinazoline [Compound 70] | ≤ 50
C=CC(=O)N1CCN(c2nc(OC[C@@]34CCCN3C[C@H](F)C4)nc3c(F)c(-c4cccc5cccc(F)c45)ccc23)[C@H](C)C1 [Compound 47, 7-(8-Fluoronaphthyl)-8-fluoro-4-(((R)-4-acryloyl-2-methylpiperazine)-1-yl)-2-(((2R,7aS)-2-fluorotetrahydro-1H-pyrincyclo-7a(5H)-yl)methoxy)quinazoline] | ≤ 50
7-(8-Methylnaphthyl)-4-(((R)-4-acryloyl-2-methylpiperazine)-1-yl)-2-(((S)-2,2-difluoro tetrahydro-1H-pyrincycl-7a(5H)-yl)methoxy)pyridine[2,3-d]lopyrimidine [Compound 87] | ≤ 50
C=C(F)C(=O)N1CCN(c2nc(OC[C@@]34CCCN3C[C@H](F)C4)nc3nc(-c4cc(O)cc5cccc(F)c45)c(F)cc23)C[C@@H]1CC#N [Compound 33, 7-(3-Hydroxy-8-fluoronaphthyl)-6-fluoro-4-(((S)-4-(2-fluoroacryloyl)-3-carbonitrileethylpiperazine)-1-yl)-2-(((2R,7aS)-2-fluorotetrahydro-1H-pyrincycl-7a(5H)-yl)methoxy)pyridine[2,3-d]lopyrimidine] | ≤ 50
7-(8-Fluoronaphthalene)-4-(((R)-4-Acryloyl-3-carbonitrileethylpiperazine)-1-y1)-2-(((1-(pyrrolidin-1-yl)methylcyclopropan-1-yl)methoxy)pyridine[2,3-d]lopyrimidine [Compound 15] | ≤ 50
6-Chloro-74(3-hydroxy-8-fluoronaphthyl)-8-fluoro-4-(((S)-4-(2-fluoroacryloyl)-3-carbonitrileethylpiperazine)-1-yl)-2-(((2R,7aS)-2-fluorotetrahydro-1H-pyrincycline-7a(5H)-yl)methoxy)quinazoline [Compound 43] | ≤ 50
7-(8-Fluoronaphthyl)-8-fluoro-4-(((S)-4-(2-fluoro acryloyl)-3-c arbonitrileethylpiperazine)-1-yl)-2-((tetrakis Hydrogen-1H-pyrinyl-7a(5H)-yl)methoxy)quinazoline [Compound 88] | ≤ 50
C=CC(=O)N1CCN(c2nc(OCC34CCCN3CCC4)nc3c(F)c(-c4cc(O)cc5cccc(F)c45)ccc23)[C@H](C)C1 [Compound 49, 7-(3-Hydroxy-8-fluoronaphthyl)-8-fluoro-4-(((R)-4-acryloyl-2-methylpiperazine)-1-yl)-2-((tetrahydro-1H-pyrinyl-7a(5H)-yl)methoxy)quinazoline] | ≤ 50
C=C(F)C(=O)N1CCN(c2cc(OC[C@@H]3CCCN3C)nc3nc(-c4cccc5cccc(F)c45)c(F)cc23)[C@H](C)C1 [Compound 8] | ≤ 50
